In patent US10118938B2, “Arsenoplatin anti-cancer agents” (priority 2012, dated 2018):

How the values were obtained:
[1] = system: A2780 ovarian cancer cell line (cisplatin sensitive); assay: In vitro cytotoxicity assay (MTS), A2780; type: cell-based, human; settings: MTS after 72 hours, ±SD
Description: (§1) The MDA-MB-231-mCherry breast cancer cells were cultured in Dulbecco's modified Eagle's medium (DMEM) and supplemented with 5% heat-inactivated fetal bovine serum (FBS), 50 units/ml penicillin, 50 μg/ml streptomycin, 2 mM L-glutamine, and 1 μg/ml blasticidin S (Sigma). The A2780 and A2780^CP ovarian cancer cell lines and the multiple myeloma RPMI 8226 cell line were cultured in RPMI 1640 medium supplemented with 10% FBS, 50 units/ml penicillin, 50 μg/ml streptomycin, 2 mM L-glutamine. The U-87 and HTC-116 cancer cell lines were cultured without antibiotics. Cells were grown at 37° C. in a humidified atmosphere of 5% of CO2.
(§2) B. In Vitro Cytotoxicity Assay for MDA-MB-231mCherry, A270 and A2780CP Cancer Cell Lines.
The cytotoxicities of compound (1), cisplatin, and As2O3 were assessed by MTS assay using the CellTiter 96 Aqueous MTS (Promega). The 100 μL aliquots of cell suspension (1.0×10^5 cells/ml) were plated in 96-well tissue culture plates in the incubator overnight at 37° C. in a humidified atmosphere of 5% of CO2. The serial dilutions of compound (1), cisplatin, and As2O3 in appropriate media were transferred to the cells. The MTS solution (20 μL) was added after 72 hours and the absorbance was measured at 495 nm 4 hours later. Sigmoidal dose response curves were plotted using the GraphPad Prism software. The IC50 values were obtained on at least three independent experiments. In vitro cytotoxicity assay for U-87 and HTC-116 cancer cell line. For the experiment, cells were cultured in RPMI 1640 medium with 5% FBS and 2 mM L-glutamine. […] HCT-116 and U-87 cancer cell were plated in 96 well plates. The cells were plated in four replicates. The densities of the cells were 5000 and 10000 per well in 90 μL for HTC-116 and U-87, respectively. […] The cells were treated with 100, 10, 1, 0.1 0.01, 0.001, 0.0001, 0.00001 and 0.000001 μM of compound (1), cisplatin, and As2O3. […] The plates were shaken for 2 minutes and allowed to sit for activation prior to reading for 10 minutes. Plates were read on Biotek Synergy H1 (Biotek, Wenooski, Vt.) reader capable of luminescence detection.

[2] = system: glioblastoma U-87 cells; type: cell-based, human; settings: Cell Titer Glow, 48 hours post drug treatment, ±SD
Description: as §1
(§3) The cytotoxicities of compound (1), cisplatin, and As2O3 were assessed by MTS assay using the CellTiter 96 Aqueous MTS (Promega). The 100 μL aliquots of cell suspension (1.0×10^5 cells/ml) were plated in 96-well tissue culture plates in the incubator overnight at 37° C. in a humidified atmosphere of 5% of CO2. The serial dilutions of compound (1), cisplatin, and As2O3 in appropriate media were transferred to the cells. The MTS solution (20 μL) was added after 72 hours and the absorbance was measured at 495 nm 4 hours later. Sigmoidal dose response curves were plotted using the GraphPad Prism software. The IC50 values were obtained on at least three independent experiments. In vitro cytotoxicity assay for U-87 and HTC-116 cancer cell line. For the experiment, cells were cultured in RPMI 1640 medium with 5% FBS and 2 mM L-glutamine. […] HCT-116 and U-87 cancer cell were plated in 96 well plates. The cells were plated in four replicates. The densities of the cells were 5000 and 10000 per well in 90 μL for HTC-116 and U-87, respectively. […] The cells were treated with 100, 10, 1, 0.1 0.01, 0.001, 0.0001, 0.00001 and 0.000001 μM of compound (1), cisplatin, and As2O3. After 48 hours post drug treatment all plates were allowed to equilibrate for 30 minutes at room temperature from incubator. Addition of 100 μL of Cell Titer Glow (Promega, Fitchburg, Wis.) reagent was added to the wells. The plates were shaken for 2 minutes and allowed to sit for activation prior to reading for 10 minutes. Plates were read on Biotek Synergy H1 (Biotek, Wenooski, Vt.) reader capable of luminescence detection.

[3] = system: multiple myeloma RPMI 8226 cell line; type: cell-based, human; settings: ±SD
Description: as §1, §3

[4] = system: colon HCT-116 cells; type: cell-based, human; settings: Cell Titer Glow, 48 hours post drug treatment, ±SD, read-out: IC50 values in μM (±SD), HTC−116
Description: as §1, §3

[5] = system: A2780^CP ovarian cancer cell line (cisplatin resistant); type: cell-based, human; settings: for IC50: ovarian cisplatin resistant, MTS after 72 hours, ±SD
Description: as §1, §2, §3

[6] = system: MDA-MB-231-mCherry breast cancer cells; type: cell-based, human; settings: triple negative breast cancer; MTS after 72 hours; ±SD
Description: as §1, §2, §3

[7] = Solubility of the isolated complex; type: physicochemical
Description: Cisplatin (300 mg, 1.00 mmol) or K2[PtCl4] (415 mg, 1.00 mmol) was added to 125 cm^3 of 9:1 CH3CN/H2O (v/v). The mixture was stirred at 90° C. Once the platinum compound was dissolved, 396 mg As2O3(2.00 mmol) was added to the solution, and the reaction mixture was stirred at 90° C. for 72 hours. The resulting mixture was filtered, and the filtrate was left at room temperature in a glass beaker for approximately 4 weeks until crystals formed. Crystals suitable for a single crystal X-ray analysis were retrieved from solution. The solution was filtered, washed with CH3CN:H2O (9:1 mixture), and the obtained crystals were dried in a dessicator. Yield 350 mg product (75%; 23% when cisplatin is used). […] Elemental analysis (% calcd., found for C7H18.5AsClN3.5O6Pt): C (15.20, 15.24), H (3.37, 3.36), N (8.86, 8.69). NMR: ^1H NMR (600 MHz, [D6]DMSO, 25° C.) δ: 8.91 (s, 2H—OH), 8.15 (s, 2H—NH), 2.13 (s, 6H—CH3). ^13C NMR (150 MHz, [D6]DMSO, 25° C.): δ 172.1 (C-1, C-3), 171.4 (C-5, C-7), 22.5 (C-6, C-8), 16.6 (C-2, C-4). ^15N NMR (60 MHz, from the ^1H-^15N HSQC, [D6]DMSO, referenced to ^15NH4Cl, 25° C.): δ 106.4 (N-1, N-2), ^195Pt NMR (129 MHz, [D6]DMSO, 25° C.), δ: −3589 (s, 1Pt) ppm. UV/Vis ((methanol-water=1:1): λ1=283 nm (ε=4062 dm^3 mol^−1 cm^−1), λ2=247 nm (ε=3621 dm^3 mol^−1 cm^−1), sh. 260 nm.
LC/ESI-MS data were recorded every 24 hours. The color gradually turned yellow and ultimately colorless over the 4 day period. The resulting mixture was filtered and left to sit (pH roughly 2) at 25° C., and, within a week, crystals suitable for single crystal X-ray analysis appeared. The solution was filtered again, washed with H2O, dried, and weighed (212 mg 44%).
Compound (1) obtained in Example 2 (100 mg 0.18 mmol) was dissolved in 4 cm^3 of methanol and added to an equal-molar solution of KSCN (17.6 mg 0.180 mmol) in 4 cm^3 of water. The reaction mixture was allowed to stir at 50° C. for 5 hours. The mixture was filtered and the solution was left standing at room temperature until crystals appeared. The obtained crystals were removed by filtration. Yield: 60.00 mg (52%). Elemental analysis (% calcd., found for PtC5H10N3O4SAs): C (12.56, 12.37), H (2.11, 1.97), N (8.78, 8.56). NMR data: ^1H NMR (600 MHz, [D6]DMSO): δ 2.21 (s, 6H, CH3), 7.70 (s, 2H, NH), 9.20 (s, 2H, OH). ^13C NMR (150 MHz, [D6]DMSO) δ 17.5 (CH3), 117.7 (SCN), 172.6 (CO); ^195Pt NMR (129 MHz, [D6]DMSO) δ −3861 ppm (s, 1Pt); UV/Vis (methanol-water=1:1): λ1=285 nm (ε=4217 dm^3 mol^−1 cm^−1); λ2=225 nm (ε=15919 dm^3 mol^−1 cm^−1), shoulder at 265 nm.

[8] = Linkage isomerization in [D6]DMSO solution by NMR; type: physicochemical; settings: compound (5) dissolved in [D6]DMSO, room temperature; S-isomer = compound (5), N-isomer = compound (6)
Text: Solution NMR and X-ray crystallography confirm that the Pt—As bond remained intact. Crystals suitable for a single crystal X-ray analysis were obtained when compound (5) was synthesized in a 1:1 water/methanol mixture, where the SCN^− ion is bound to Pt(II) through the sulfur atom (FIG. 1D). […] Assignments of chemical shifts for the S- and N-bound isomers signals are based on multidimensional ^195Pt and ^15N NMR spectroscopy on sample of compound (5) which is synthesized using thiocyanate enriched in ^13C and ^15N at 99% (FIG. 2).
Cisplatin, K2[PtCl4], DMSO, methanol, acetonitrile, propionitrile and As2O3 were purchased from Sigma-Aldrich and used without further purification. Media for the cell cultures and all other cell supplements were purchased from Invitrogen. The following spectrometers were used: NMR: Bruker Avance-III 600 and 500 MHz; chemical shifts (^1H, ^13C) were referenced to tetramethylsilane at 0.000 ppm ^1H and ^13C if it was present, and to residual solvent signal for samples in which TMS was absent (for [D6]DMSO, δH=2.50 ppm and δC=39.5 ppm). […] UV/Vis electron absorbance measurements were performed on a Perkin Elmer Lambda 650 spectrophotometer. […]

[9] = system: panel of human cancer cell lines; assay: Anticancer activity in a panel of human cancer cell lines; type: cell-based
Description: as §1
The cytotoxicities of compound (1), cisplatin, and As2O3 were assessed by MTS assay using the CellTiter 96 Aqueous MTS (Promega). The 100 μL aliquots of cell suspension (1.0×10^5 cells/ml) were plated in 96-well tissue culture plates in the incubator overnight at 37° C. in a humidified atmosphere of 5% of CO2. The serial dilutions of compound (1), cisplatin, and As2O3 in appropriate media were transferred to the cells. The MTS solution (20 μL) was added after 72 hours and the absorbance was measured at 495 nm 4 hours later. […] The plates were shaken for 2 minutes and allowed to sit for activation prior to reading for 10 minutes. Plates were read on Biotek Synergy H1 (Biotek, Wenooski, Vt.) reader capable of luminescence detection.

Compound | IC50 [1] [µM] | IC50 [2] [µM] | IC50 [3] [µM] | IC50 [4] [µM] | IC50 [5] [µM] | IC50 [6] [µM] | solubility in organic solvents [7] | share of isomer in equilibrium mixture [8] [%] | solubility in water [7] | anticancer activity in a panel of human cancer cell lines [9] | resistance factor (RF) ([5]; ovarian A2780 and A2780^CP cell lines, RF value of <2 denotes no cross-resistance)
arsenic trioxide [As2O3] | 17.1 ± 1.5 | 1.6 ± 2.9 | 7.1 ± 0.2 | 9.4 ± 0.9 | 21.6 ± 1.4 | 11.9 ± 2.3 |  |  |  |  | 
[Pt(μ-NHC(CH3)O)2(SCN)As(OH)2] [Compound (5)] |  |  |  |  |  |  | DMSO and methanol | 64±1.2 |  |  | 
[Pt(μ-NHC(CH3CH2)O)2ClAs(OH)2] [Compound (2)] |  |  |  |  |  |  | soluble in methanol, DMSO |  | partially soluble in H2O | significant anticancer activity | 
[Pt(μ-NHC(CH3)O)2(NCS)As(OH)2] [Compound (6)] |  |  |  |  |  |  |  | 36 |  |  | 
N.N.[Cl][Pt][Cl] [Cisplatin, Cis-diamminedichloroplatinum(II)] | 3.1 ± 1.1 | 9.6 ± 0.8 | 1.9 ± 0.1 | 5.5 ± 1.3 | 47.3 ± 2.1 | 22.3 ± 2.8 |  |  |  |  | 
[Pt(μ-NHC(CH3)O)2ClAs(OH)2] [Compound (1)] | 20.3 ± 4 | 0.37 ± 0.11 | 4.5 ± 1 | 1.6 ± 0.4 | 21.4 ± 1.8 | 9.5 ± 0.1 | soluble in DMSO, methanol, ethanol |  | partially in water | significant anticancer activity | 1.1
